Experimental data as given in US20160168119A1, “AUTOTAXIN INHIBITORS” (Novartis AG, priority 2013, published 2016).
Where two headings read alike, the source gives them in different places.

Target: T1, Recombinant human ATX (Homo sapiens, UniProt Q13822)
T1 construct: made in house; host or cells: human embryonic kidney (HEK) cells
Experiment: ATX inhibition assay (choline release, Amplex Red fluorescence)
Assay type: biochemical
Description: Reagents—LPC (oleoyl (18:1)) was purchased from Avanti Polar Lipids (Alabaster, Ala.) and solubilized in methanol to 20 mM. Amplex Red was obtained from Invitrogen Life Technologies (Paisley, UK) and dissolved in DMSO to 10 mM. Choline oxidase and horseradish peroxidase (HRP) were obtained from Sigma Aldrich (Dorset, UK) and dissolved in HBSS to 20 U/ml and 200 U/ml respectively. All reagents were stored at −20° C. in single use aliquots. All experimental measurements were performed in assay buffer made up immediately prior to use (HBSS, 0.01% BSA essentially fatty acid free).
PerkinElmer EnVision (Fluorescence Intensity/Absorbance Monochromator) or Tecan Infinite 200 PRO series plate reader was used to detect change in fluorescent intensity.
Assessing ATX inhibition—ATX activity was determined by measurement of released choline in reactions containing ATX (10 nM), choline oxidase (0.1 U/ml), HRP (100 U/ml), amplex red (50 μM) and LPC 18:1 (10 μM). Compounds of the invention were prepared as 10 point serial dilutions from 1 μM in duplicate and pre-incubated with ATX at 37° C. for 20 minutes prior to the addition of remaining reagents. The liberated choline was measured from changes in fluorescence intensity (λex 530 nm, λem 590 nm) of the product resurofin at 37° C. every 2 minutes over a 40-minute period. ATX activity was measured as a slope of the linear portion of the progress curve, typically between 14 to 24 minutes.
Data analysis—Slope data was exported to Graphpad prism (Graphpad software, San Diego, Calif.) where data was fitted to equation 1.
Y=Bottom+(Top−Bottom)/(1+10̂((LogIC50−X)*HillSlope)) Equation 1: […]

[1] = ATX 10 nM, LPC 18:1 10 μM, pre-incubated 20 minutes at 37° C., mean of n≧2, read-out: IC50

| Compound | IC50 [1] | IC50 |
| --- | --- | --- |
| Cc1csc(CN(C)C(=O)/C=C/c2ccc(Cl)cc2Cn2nnc(C)n2)n1 [Example 2.2, (E)-3-(4-Chloro-2-((5-methyl-2H-tetrazol-2-yl)methyl)phenyl)-N-methyl-N-((4-methylthiazol-2-yl)methyl)acrylamide] | 0.074 µM | – |
| COc1ccc(CNC(=O)CN(C)C(=O)/C=C/c2ccc(C(F)(F)F)cc2Cn2nnc(C)n2)cc1 [Example 6.5, (E)-N-(2-((4-Methoxybenzyl)amino)-2-oxoethyl)-N-methyl-3-(2-((5-methyl-2H-tetrazol-2-yl)methyl)-4-(trifluoromethyl)phenyl)acrylamide] | 0.016 µM | – |
| Cc1nnn(Cc2cc(C(F)(F)F)ccc2/C=C/C(=O)N(C)CCOc2ccccc2)n1 [Example 6.2, (E)-N-Methyl-3-(2-((5-methyl-2H-tetrazol-2-yl)methyl)-4-(trifluoromethyl)phenyl)-N-(2-phenoxyethyl)acrylamide] | – | 0.009 µM |
| CCN(CCOC)C(=O)/C=C/c1ccc(Cl)cc1Cn1nnc(C)n1 [Example 2.4, (E)-3-(4-Chloro-2-((5-methyl-2H-tetrazol-2-yl)methyl)phenyl)-N-ethyl-N-(2-methoxyethyl)acrylamide] | 0.05 µM | – |
| CCN(CC(O)c1cccc(O)c1)C(=O)/C=C/c1ccc(Cl)cc1Cn1nnc(C)n1 (centres unmarked) [Example 2.5, (E)-3-(4-Chloro-2-((5-methyl-2H-tetrazol-2-yl)methyl)phenyl)-N-ethyl-N-(2-hydroxy-2-(3-hydroxyphenyl)ethyl)acrylamide] | 0.094 µM | – |
| Cc1nnn(Cc2cc(C(F)(F)F)ccc2/C=C/C(=O)N(C)CCCCc2cccnc2)n1 [Example 6.6, (E)-N-Methyl-3-(2-((5-methyl-2H-tetrazol-2-yl)methyl)-4-(trifluoromethyl)phenyl)-N-(4-(pyridin-3-yl)butyl)acrylamide] | 0.049 µM | – |
| Cc1cc(CN(C)C(=O)/C=C/c2ccc(Cl)cc2Cn2nnc(C)n2)on1 [Example 2.3, (E)-3-(4-Chloro-2-((5-methyl-2H-tetrazol-2-yl)methyl)phenyl)-N-methyl-N-((3-methylisoxazol-5-yl)methyl)acrylamide] | 0.073 µM | – |
| Cc1nnn(Cc2cc(Cl)ccc2/C=C/C(=O)N(C)CC2CC(=O)N(C(C)(C)C)C2)n1 (centres unmarked) [Example 2.6, (E)-N-((1-(tert-Butyl)-5-oxopyrrolidin-3-yl)methyl)-3-(4-chloro-2-((5-methyl-2H-tetrazol-2-yl)methyl)phenyl)-N-methylacrylamide] | 0.052 µM | – |
| Cc1csc(CN(C)C(=O)/C=C/c2ccc(C(F)(F)F)cc2Cn2nnc(C)n2)n1 [Example 6.3, (E)-N-Methyl-3-(2-((5-methyl-2H-tetrazol-2-yl)methyl)-4-(trifluoromethyl)phenyl)-N-((4-methylthiazol-2-yl)methyl)acrylamide] | 0.04 µM | – |
| CCN(Cc1ccncc1)C(=O)/C=C/c1ccc(Cl)cc1Cn1nnc(C)n1 [Example 2.1, (E)-3-(4-Chloro-2-((5-methyl-2H-tetrazol-2-yl)methyl)phenyl)-N-ethyl-N-(pyridin-4-ylmethyl)acrylamide] | 0.064 µM | – |
| CCN(C(=O)/C=C/c1ccc(C(F)(F)F)cc1Cn1nnc(C)n1)C1CCN(C(=O)OC(C)(C)C)CC1 [Example 1.2, (E)-tert-Butyl-4-(N-ethyl-3-(2-((5-methyl-2H-tetrazol-2-yl)methyl)-4-(trifluoromethyl)phenyl)acrylamido)piperidine-1-carboxylate] | 0.02 µM | – |
| Cc1nnn(Cc2cc(Cl)ccc2/C=C/C(=O)N(C)CC2CCCO2)n1 (centres unmarked) [Example 2.7, (E)-3-(4-Chloro-2-((5-methyl-2H-tetrazol-2-yl)methyl)phenyl)-N-methyl-N-((tetrahydrofuran-2-yl)methyl)acrylamide] | 0.183 µM | – |

Other lines, results leading:

| IC50 [1] | IC50 | Compound |
| --- | --- | --- |
| 0.013 µM | – | Cc1nnn(Cc2cc(C(F)(F)F)ccc2/C=C/C(=O)N(C)CC2CCN(Cc3ccc(F)cc3)CC2)n1 [Example 5, (E)-N-((1-(4-Fluorobenzyl)piperidin-4-yl)methyl)-N-methyl-3-(2-((5-methyl-2H-tetrazol-2-yl)methyl)-4-(trifluoromethyl)phenyl)acrylamide] |
| 0.012 µM | – | Cc1nnn(Cc2cc(C(F)(F)F)ccc2/C=C/C(=O)N(C)Cc2nc3ccccc3s2)n1 [Example 6.10, (E)-N-(Benzo[d]thiazol-2-ylmethyl)-N-methyl-3-(2-((5-methyl-2H-tetrazol-2-yl)methyl)-4-(trifluoromethyl)phenyl)acrylamide] |
| 0.01 µM | – | Cc1nnn(Cc2cc(C(F)(F)F)ccc2/C=C/C(=O)N(C)CC2CCN(C(=O)c3ccc(F)cc3)CC2)n1 [Example 3, (E)-N-((1-(4-Fluorobenzoyl)piperidin-4-yl)methyl)-N-methyl-3-(2-((5-methyl-2H-tetrazol-2-yl)methyl)-4-(trifluoromethyl)phenyl)acrylamide] |
| 0.0053 µM | – | Cc1nnn(Cc2cc(C(F)(F)F)ccc2/C=C/C(=O)N(C)Cc2nc(-c3ccccc3)no2)n1 [Example 6.9, (E)-N-Methyl-3-(2-((5-methyl-2H-tetrazol-2-yl)methyl)-4-(trifluoromethyl)phenyl)-N-((3-phenyl-1,2,4-oxadiazol-5-yl)methyl)acrylamide] |
| 0.0045 µM | – | Cc1ccc(S(=O)(=O)N2CCC(CN(C)C(=O)/C=C/c3ccc(C(F)(F)F)cc3Cn3nnc(C)n3)CC2)cc1 [Example 4.2, (E)-N-Methyl-3-(2-((5-methyl-2H-tetrazol-2-yl)methy)-4-(trifluoromethyl)phenyl)-N-((1-tosylpiperidin-4-yl)methyl)acrylamide] |
| 0.007 µM | – | Cc1nnn(Cc2cc(C(F)(F)F)ccc2/C=C/C(=O)N(C)CC2CC(=O)N(C(C)(C)C)C2)n1 (centres unmarked) [Example 6.8, (E)-N-((1-(tert-Butyl)-5-oxopyrrolidin-3-yl)methyl)-N-methyl-3-(2-((5-methyl-2H-tetrazol-2-yl)methyl)-4-(trifluoromethyl)phenyl)acrylamide] |
| 0.014 µM | – | Cc1nnn(Cc2cc(Cl)ccc2/C=C/C(=O)N(C)CC2CCN(C(=O)OC(C)(C)C)CC2)n1 [Example 1.1, (E)-tert-Butyl 4-((3-(4-chloro-2-((5-methyl-2H-tetrazol-2-yl)methyl)phenyl)-N-methylacrylamido)methyl)piperidine-1-carboxylate] |
| 0.0069 µM | – | Cc1cc(CN(C)C(=O)/C=C/c2ccc(C(F)(F)F)cc2Cn2nnc(C)n2)n(C)n1 [Example 6.1, (E)-N-((1,3-Dimethyl-1H-pyrazol-5-yl)methyl)-N-methyl-3-(2-((5-methyl-2H-tetrazol-2-yl)methyl)-4-(trifluoromethyl)phenyl)acrylamide] |
| 0.0049 µM | – | Cc1nnn(Cc2cc(C(F)(F)F)ccc2/C=C/C(=O)N(C)CC2CCN(S(=O)(=O)C3CC3)CC2)n1 [Example 4.1, (E)-N-((1-(Cyclopropylsulfonyl)piperidin-4-yl)methyl)-N-methyl-3-(2-((5-methyl-2H-tetrazol-2-yl)methyl)-4-(trifluoromethyl)phenyl)acrylamide] |
| 0.013 µM | – | Cc1nnn(Cc2cc(C(F)(F)F)ccc2/C=C/C(=O)N(C)Cc2nnc(-c3ccccc3)o2)n1 [Example 6.4, (E)-N-Methyl-3-(2-((5-methyl-2H-tetrazol-2-yl)methyl)-4-(trifluoromethyl)phenyl)-N-((5-phenyl-1,3,4-oxadiazol-2-yl)methyl)acrylamide] |
| 0.006 µM | – | Cc1nnn(Cc2cc(C(F)(F)F)ccc2/C=C/C(=O)N(C)Cc2nc(-c3ccccc3)cs2)n1 [Example 6.7, (E)-N-Methyl-3-(2-((5-methyl-2H-tetrazol-2-yl)methyl)-4-(trifluoromethyl)phenyl)-N-((4-phenylthiazol-2-yl)methyl)acrylamide] |
